# Data taken from patent US8383581B2, “Short-chain peptides as parathyroid hormone (PTH) receptor agonist” (Cadila Healthcare Limited, priority 2009, dated 2013).
# Where a SMILES comes first, the peptide text is derived from it. [ ]: non-standard residue; d: D form. ξ: configuration not given here. ξBip(2'-Et-4'-OMe) = CCc1cc(OC)ccc1-c1ccc(CC(N)C(=O)O)cc1; Arg(NO2) = N=C(NCCC[C@H](N)C(=O)O)N[N+](=O)[O-]; ξαMePhe(2,6-F2) = CC(N)(Cc1c(F)cccc1F)C(=O)O; hArg = N=C(N)NCCCC[C@H](N)C(=O)O; hCit = NC(=O)NCCCC[C@H](N)C(=O)O; ξhhPhe = NC(CCCc1ccccc1)C(=O)O; Nle = CCCC[C@H](N)C(=O)O; Ac5c = NC1(C(=O)O)CCCC1; Ac3c = NC1(C(=O)O)CC1; Aib = CC(C)(N)C(=O)O
# Test system: ovariectomised (OVX) rats
# Experiment: In vivo anti-osteoporosis activity testing in OVX rat model (serum calcium, phosphate, bone parameters)
# Set-up: species or system Female Wistar Rats
# Details: po
# From the text: c) In Vivo Anti-Osteoporosis Activity Testing in OVX Rat Model: The ovariectomised (OVX) rats were used to study anti-osteoporosis activity of test compounds (short-chain peptides) in vivo. The OVX rats develop osteopenia due to ovarian hormone deficiency. Osteopenia can be detected as early as 14 days post OVX, increase for the next 100 days and then stabilised (Wronski T. J., et al., Calcif. Tissue Int., 43(3), 1988, 179-183). Detailed Study Protocol to Evaluate the Effects of Anabolic Therapy on Bone Markers and Histomorphometry in OVX Animals: 10 to 11 weeks old Female Wistar Rats (150-200 g) were used. The animals were kept in individually ventilated cages in a room with controlled temperature (23°±3° C.), lighting (12:12 h light-dark cycle) and relative humidity (55±10%). Animals had free access to standard rat chow and water. Protocol for use of animals for conducting this study has been reviewed and approved by Institutional Animal Ethics Committee (IAEC). The animals were marked with picric acid for identification and acclimatized to experimental room conditions for 2 days prior to initiation of the study. For the induction of osteoporosis, rats were bilaterally ovariectomised under anesthesia. For Ovariectomy, Incision was made on dorsa-lateral side near lumbar region of animal. After that, ovary was excised and the veins were tied with ligature before removing ovary to prevent blood loss. Then incision was sutured back with ligature. After Bilateral ovariectomy, animals were allowed to rest for 4 weeks. They were then divided into different groups (n=9) based on their body weight. The groups consisted of a no treatment control, PTH as standard and one or two groups of test compounds (short-chain peptides). The treatment was given for the duration of 6 weeks. At the last day of treatment animals were kept overnight in metabolic cages under fasting for the collection of Urine. Next day, blood was collected after 24 hours of last dosing and animals were sacrificed. Changes in biochemical parameters and bone turnover parameters (Increase in serum Calcium and decrease in Phosphate levels, Acid Phosphatase and TRAP) were evaluated in the urine and serum. After sacrificing, intact femur and tibial bones are removed and cleaned from adherent tissues, muscles and tendons; weighed and collected in formal saline (10% formaldehyde solution). Lumbar vertebra (L5) was excised, carefully cleaned and collected in formal saline. Femur, tibia and Lumbar vertebra-5 (L5) were later processed for histomorphometric evaluation (Zhang L., et al., Tohoku J Exp Med., 1998, 186(2), 131-41; Tanizawa T., et al., Toxicol Lett., 1998, 102, 399-403).
smiles,measurement,setting,value
CCCC[C@H](NC(=O)[C@H](CC(C)C)NC(=O)[C@H](CCC(N)=O)NC(=O)[C@@H](NC(=O)[C@H](CCC(=O)O)NC(=O)C(C)(C)NC(=O)[C@@H](NC(=O)C1(N)CC1)C(C)C)[C@@H](C)CC)C(=O)N[C@@H](Cc1c[nH]cn1)C(=O)N[C@@H](CCC(N)=O)C(=O)N[C@@H](CCCCNC(=N)N)C(=O)N[C@@H](C)C(=O)N[C@@H](CCCCN)C(=O)NC(Cc1ccc(-c2ccc(OC)cc2CC)cc1)C(N)=O (stereo partly drawn) [Seq. ID. 649] (H-[Ac3c]V[Aib]EIQL[Nle]HQ[hArg]AK[ξBip(2'-Et-4'-OMe)]-NH2),% decrease in serum PO4 Levels (mg/dl) vs control,2 mg/kg,82%
same,% increase in serum Ca^2+ Levels (mg/dl) vs control,2 mg/kg,86%
CCCC[C@H](NC(=O)[C@H](CC(C)C)NC(=O)[C@H](CCC(N)=O)NC(=O)[C@@H](NC(=O)[C@H](CCC(=O)O)NC(=O)C(C)(C)NC(=O)[C@@H](NC(=O)C1(N)CCCC1)C(C)C)[C@@H](C)CC)C(=O)N[C@@H](Cc1c[nH]cn1)C(=O)N[C@@H](CCC(N)=O)C(=O)N[C@@H](CCCCNC(=N)N)C(=O)N[C@@H](C)C(=O)N[C@@H](CCCNC(=N)N[N+](=O)[O-])C(=O)NC(Cc1ccc(-c2ccc(OC)cc2CC)cc1)C(=O)NC(CCCc1ccccc1)C(N)=O (stereo partly drawn) [Seq. ID. 686] (H-[Ac5c]V[Aib]EIQL[Nle]HQ[hArg]A[Arg(NO2)][ξBip(2'-Et-4'-OMe)][ξhhPhe]-NH2),% decrease in serum PO4 Levels (mg/dl) vs control,3 mg/kg,80%
same,% increase in serum Ca^2+ Levels (mg/dl) vs control,3 mg/kg,84%
CCCC[C@H](NC(=O)[C@H](CC(C)C)NC(=O)[C@H](CCC(N)=O)NC(=O)[C@@H](NC(=O)[C@H](CCC(=O)O)NC(=O)C(C)(C)NC(=O)[C@@H](NC(=O)C(C)(C)N)C(C)C)[C@@H](C)CC)C(=O)N[C@@H](Cc1c[nH]cn1)C(=O)N[C@@H](CCC(N)=O)C(=O)N[C@@H](CCCCNC(=N)N)C(=O)NC(C)(C)C(=O)NC(C)(C)C(=O)NC(Cc1ccc(-c2ccc(OC)cc2CC)cc1)C(=O)NC(CCCc1ccccc1)C(N)=O (stereo partly drawn) [Seq. ID. 742] (H-[Aib]V[Aib]EIQL[Nle]HQ[hArg][Aib][Aib][ξBip(2'-Et-4'-OMe)][ξhhPhe]-NH2),% decrease in serum PO4 Levels (mg/dl) vs control,0.1 mg/kg,92%
same,% increase in serum Ca^2+ Levels (mg/dl) vs control,0.1 mg/kg,89%
CCCC[C@H](NC(=O)[C@H](CC(C)C)NC(=O)[C@H](CCC(N)=O)NC(=O)[C@@H](NC(=O)[C@H](CCC(=O)O)NC(=O)C(C)(C)NC(=O)[C@@H](NC(=O)C1(N)CCCC1)C(C)C)[C@@H](C)CC)C(=O)N[C@@H](Cc1c[nH]cn1)C(=O)N[C@@H](CCC(N)=O)C(=O)N[C@@H](CCCCNC(N)=O)C(=O)N[C@@H](C)C(=O)N[C@@H](CCCNC(=N)N)C(=O)NC(Cc1ccc(-c2ccc(OC)cc2CC)cc1)C(=O)NC(CCCc1ccccc1)C(N)=O (stereo partly drawn) [Seq. ID. 779] (H-[Ac5c]V[Aib]EIQL[Nle]HQ[hCit]AR[ξBip(2'-Et-4'-OMe)][ξhhPhe]-NH2),% decrease in serum PO4 Levels (mg/dl) vs control,1 mg/kg,56%
same,% increase in serum Ca^2+ Levels (mg/dl) vs control,1 mg/kg,67%
"CCCC[C@H](NC(=O)[C@H](CC(C)C)NC(=O)[C@H](CCC(N)=O)NC(=O)[C@@H](NC(=O)[C@H](CCC(=O)O)NC(=O)C(C)(C)NC(=O)[C@@H](NC(=O)C(C)(C)N)C(C)C)[C@@H](C)CC)C(=O)N[C@@H](Cc1c[nH]cn1)C(=O)N[C@@H](CCC(N)=O)C(=O)NC(C)(Cc1c(F)cccc1F)C(=O)N[C@@H](C)C(=O)NC(C)(C)C(=O)NC(Cc1ccc(-c2ccc(OC)cc2CC)cc1)C(=O)NC(CCCc1ccccc1)C(N)=O (stereo partly drawn) [Seq. ID. 798] (H-[Aib]V[Aib]EIQL[Nle]HQ[ξαMePhe(2,6-F2)]A[Aib][ξBip(2'-Et-4'-OMe)][ξhhPhe]-NH2)",% decrease in serum PO4 Levels (mg/dl) vs control,5 mg/kg,82%
same,% increase in serum Ca^2+ Levels (mg/dl) vs control,5 mg/kg,88%
"CCCC[C@H](NC(=O)[C@H](CC(C)C)NC(=O)[C@H](CCC(N)=O)NC(=O)[C@@H](NC(=O)[C@H](CCC(=O)O)NC(=O)C(C)(C)NC(=O)[C@@H](NC(=O)C1(N)CCCC1)C(C)C)[C@@H](C)CC)C(=O)N[C@@H](Cc1c[nH]cn1)C(=O)N[C@@H](CCC(N)=O)C(=O)NC(C)(Cc1c(F)cccc1F)C(=O)N[C@@H](C)C(=O)NC(C)(Cc1c(F)cccc1F)C(=O)NC(Cc1ccc(-c2ccc(OC)cc2CC)cc1)C(=O)NC(CCCc1ccccc1)C(N)=O (stereo partly drawn) [Seq. ID. 801] (H-[Ac5c]V[Aib]EIQL[Nle]HQ[ξαMePhe(2,6-F2)]A[ξαMePhe(2,6-F2)][ξBip(2'-Et-4'-OMe)][ξhhPhe]-NH2)",% decrease in serum PO4 Levels (mg/dl) vs control,3 mg/kg,65%
same,% increase in serum Ca^2+ Levels (mg/dl) vs control,3 mg/kg,59%
